According to PMC11595589, “A Pharmacokinetic and Bioavailability Study of Ecklonia cava Phlorotannins Following Intravenous and Oral Administration in Sprague–Dawley Rats” (Marine Drugs, 2024):

test: Relative polarity by RP-HPLC of EK-ECP; type: physicochemical; settings: RP-HPLC chromatogram of EK-ECP
Experimental: A further detailed analysis of the phlorotannins present in EK-ECP was performed to identify and quantify the major components (individual phlorotannins) by reversed phase high performance liquid chromatography (RP-HPLC). A representative HPLC (Column: CAPCELL PAK C18; Detector: UV 234 nm) chromatogram and the identification of major components are presented in Figure 3. As shown in the chromatogram, dieckol at retention time 15.65 min was the most notable compound in EK-ECP. The chromatogram could be divided to relatively high (6–13 min), mid (13~20 min) and low polarity region (20~27 min) and each region could be represented by the regionally most notable peak 8,8′-bieckol, dieckol and PFF-A, respectively. These three phlorotannins were selected for monitoring the blood samples upon administration of EK-ECP during pharmacokinetic (PK) experiment. Other minor phlorotannins than the three notable ones identified were 2-O-(2,4,6-Trihydroxyphenyl)-6,6′-bieckol (7.217 min), 6,6′-bieckol (7.717 min), 7-phloroeckol (7.717 min), 2-phloroeckol (9.883 min), eckol (10.450 min), dioxinodehydroeckol (23.100 min) and fucofuroeckol A (23.650 min). Other notable peaks, such as those at 12.133, 17.483, 20.833, and 21.250 min, remain unidentified due to the technical challenges in isolating and identifying the corresponding single compounds.
The hydroxyl protons observed in the phlorotannin structures are attached to aromatic rings, resulting in distinct downfield shifts (near 9 ppm) due to the electron-withdrawing effects of the aromatic system. This contrasts with the hydroxyl groups found in aliphatic alcohols in general. […]
^1H NMR (500 MHz) was acquired on Bruker Avance III 500 MHz NMR spectrometer (Bruker Corporation, Billerica, MA, USA) using DMSO-d6 as a solvent. […] To quantify the total polyphenolic content of EK-ECP, the Folin–Ciocalteu reagent was reacted with EK-ECP dissolved in 50% aqueous ethanol, and the resulting solution was analyzed using a UV–Vis spectrophotometer (SPECTROstarNano, BMG Labtech, Ortenberg, Germany) at 725 nm. […]

| Structure (SMILES) | relative polarity within the phlorotannin extract |
| --- | --- |
| Oc1cc(O)cc(Oc2c(O)cc(O)c3c2Oc2c(O)cc(Oc4c(O)cc(Oc5c(O)cc(O)c6c5Oc5c(O)cc(O)cc5O6)cc4O)cc2O3)c1 [dieckol] | in between |
| Oc1cc(O)cc(Oc2c(O)cc(O)c3c2Oc2c(cc(O)c(-c4c(O)cc5c(c4O)Oc4c(Oc6cc(O)cc(O)c6)c(O)cc(O)c4O5)c2O)O3)c1 [8,8′-bieckol] | the most hydrophilic |
| Oc1cc(O)cc(Oc2c(O)cc(O)c3c2Oc2c(O)cc4oc5c(Oc6cc(O)cc(O)c6)c(O)cc(O)c5c4c2O3)c1 [PFF-A, phlorofucofuroeckol-A] | the most lipophilic |
